Data reported in ChEMBL document CHEMBL5034009, “Second-Generation Dual FXR/sEH Modulators with Optimized Pharmacokinetics” (J Med Chem, 2021).
Values after ≈ are worked out from the molar mass of the structure shown. Active and inactive are the calls of the source. No cut-off for these calls is given here.

Key:
[1] = Metabolic stability in Sprague-Dawley rat liver microsomes assessed as half life at 10 uM preincubated with NADPH regenerating system for 5 mins followed by addition of microsome upto 60 mins by HPLC analysis; assay type: ADME
Bile acid receptor [2] = target: T1, Bile acid receptor (Homo sapiens, UniProt Q96RI1)
T1 sequence (Q96RI1 whole entry): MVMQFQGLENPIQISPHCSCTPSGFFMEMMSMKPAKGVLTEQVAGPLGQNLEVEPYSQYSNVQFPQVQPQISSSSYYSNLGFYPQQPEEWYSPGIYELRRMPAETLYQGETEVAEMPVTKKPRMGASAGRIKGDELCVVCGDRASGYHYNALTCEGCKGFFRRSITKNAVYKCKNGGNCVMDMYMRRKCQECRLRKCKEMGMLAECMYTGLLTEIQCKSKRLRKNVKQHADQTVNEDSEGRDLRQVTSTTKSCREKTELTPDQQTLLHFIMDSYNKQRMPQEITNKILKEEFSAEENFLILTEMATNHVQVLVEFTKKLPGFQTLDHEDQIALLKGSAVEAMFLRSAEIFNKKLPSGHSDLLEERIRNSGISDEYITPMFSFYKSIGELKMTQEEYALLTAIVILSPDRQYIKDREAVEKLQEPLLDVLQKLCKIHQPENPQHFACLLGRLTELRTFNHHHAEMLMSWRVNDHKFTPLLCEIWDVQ
Description: (§1) Agonist activity at recombinant human full-length FXR expressed in HeLa cells co-expressing human RXRalpha after 24 hrs by Dual-Glo luciferase assay

[3] = target: T2, Bifunctional epoxide hydrolase 2 (Homo sapiens, UniProt P34913); assay: Inhibition of recombinant human sEH using PHOME as substrate preincubated for 30 mins followed by substrate addition and measured after 30 mins by fluoresence-based assay
T2 sequence (P34913 whole entry): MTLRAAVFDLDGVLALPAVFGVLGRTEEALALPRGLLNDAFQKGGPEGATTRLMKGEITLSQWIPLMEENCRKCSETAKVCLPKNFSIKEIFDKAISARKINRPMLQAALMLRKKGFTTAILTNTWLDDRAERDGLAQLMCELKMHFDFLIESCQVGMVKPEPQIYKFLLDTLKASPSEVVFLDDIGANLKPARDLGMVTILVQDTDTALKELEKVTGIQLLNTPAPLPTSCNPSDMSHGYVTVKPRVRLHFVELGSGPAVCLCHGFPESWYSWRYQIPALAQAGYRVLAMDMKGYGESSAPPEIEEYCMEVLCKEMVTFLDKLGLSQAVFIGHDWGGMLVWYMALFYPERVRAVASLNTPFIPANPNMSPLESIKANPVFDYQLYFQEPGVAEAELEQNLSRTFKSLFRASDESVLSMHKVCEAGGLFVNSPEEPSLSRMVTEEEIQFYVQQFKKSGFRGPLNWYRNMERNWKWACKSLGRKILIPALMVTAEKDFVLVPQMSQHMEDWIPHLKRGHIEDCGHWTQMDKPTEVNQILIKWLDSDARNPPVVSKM

[4] = Metabolic stability in Sprague-Dawley rat liver microsomes assessed as intrinsic clearance at 10 uM preincubated with NADPH regenerating system for 5 mins followed by addition of microsome upto 60 mins by HPLC analysis; assay type: ADME; conditions: read-out: CLH
[5] = target: T3, Bile acid receptor (Homo sapiens) (UniProt Q96RI1); assay: Agonist activity at recombinant human full-length FXR expressed in HeLa cells co-expressing human RXRalpha at 30 uM after 24 hrs by Dual-Glo luciferase assay; assay type: cell-based
T3 sequence (whole entry): T1 sequence (Q96RI1 whole entry)

HepG2 [6] = assay: Cytotoxicity against human HepG2 cells assessed as cell viability at 100 uM by WST-1 assay; assay type: cell-based; conditions: hepg2, 100 µM
[7] = Aqueous solubility of compound; assay type: physicochemical; conditions: buffer
[8] = Cmax in CD-1 mouse plasma at 10 mg/kg, po administered as single dose by LC-MS analysis; assay type: ADME, organism-based; design: route oral, dose 10 mg/kg
[9] = Half life in CD-1 mouse plasma at 10 mg/kg, po administered as single dose by LC-MS analysis; assay type: ADME, organism-based
[10] = Tmax in CD-1 mouse plasma at 10 mg/kg, po administered as single dose by LC-MS analysis; assay type: ADME, organism-based
HepG2 [11] = assay: Effect on FXR regulated gene expression in human HepG2 cells assessed as induction of PPARalpha expression at 1 uM after 8 hrs by qRT-PCR analysis
HepG2 [12] = assay: Effect on FXR regulated gene expression in human HepG2 cells assessed as induction of SREBP1c expression at 1 uM after 8 hrs by qRT-PCR analysis
Bile acid receptor [13] = target: T1, Bile acid receptor; conditions: hela
Description: as §1

Structure (SMILES)	half-life at 10 µM [1] [min]	EC50 (Bile acid receptor [2]) [nM]	IC50 [3] [nM]	microsomal CLint at 10 µM [4] [µL/min/mg]	also measured
CS(=O)(=O)Nc1ccc(CNC(=O)c2ccc(N3CCCCC3)cc2)c(Cl)c1	67	410	71	20	
COC(C)(C)c1ccc(C(=O)NCc2ccc(NS(C)(=O)=O)cc2Cl)cc1	55		9	24	Activity [5]: inactive
CC(C)(C)c1ccc(C(=O)NCc2ccc(NS(=O)(=O)C(F)(F)F)cc2Cl)cc1	78		21	17	Activity [5]: inactive
CC(C)(C)c1ccc(C(=O)NCc2ccc(NS(=O)(=O)C3CC3)cc2Cl)cc1	33	1500	7.8	41	
CCS(=O)(=O)Nc1ccc(CNC(=O)c2ccc(C(C)(C)C)cc2)c(Cl)c1	47	500	6.1	28	
CS(=O)(=O)Nc1ccc(CNC(=O)c2ccc(C3(C(F)(F)F)CC3)cc2)c(Cl)c1	182		4.3	7.5	Activity (HepG2 [6]): Non-Toxic; solubility [7]: 2.9 µg/mL (≈ 6.49 µM)
CS(=O)(=O)Nc1ccc(CNC(=O)c2ccc(C3(O)COC3)cc2)c(Cl)c1	254		111	5.4	Activity [5]: inactive
CC(C)(C)c1ccc(C(=O)NCc2ccc(NS(C)(=O)=O)cc2Cl)cc1	65			21	
CC(C)Oc1ccc(C(=O)NCc2ccc(NS(C)(=O)=O)cc2Cl)cc1	111	400	12	12	
CS(=O)(=O)Nc1ccc(CNC(=O)c2ccc(OC(F)(F)F)cc2)c(Cl)c1	148	1090	22	9.1	
CC(F)(F)c1ccc(C(=O)NCc2ccc(NS(C)(=O)=O)cc2Cl)cc1	141	1200	2	9.6	
CC(C)(C)c1ccc(C(=O)NCc2ccc(N)cc2Cl)cc1		40			
CS(=O)(=O)Nc1ccc(CNC(=O)c2ccc(N3CCC3)cc2)c(Cl)c1	157	13000	94	8.6	
CN(C)c1ccc(C(=O)NCc2ccc(NS(C)(=O)=O)cc2Cl)cc1	53			25	
CS(=O)(=O)Nc1ccc(CNC(=O)c2ccc(C34CC(C3)C4)cc2)c(Cl)c1	81	560	49	17	
CC(C)S(=O)(=O)Nc1ccc(CNC(=O)c2ccc(C(C)(C)C)cc2)c(Cl)c1	59		11.2	23	
CS(=O)(=O)Nc1ccc(CNC(=O)c2ccc(C(F)(F)C(F)(F)F)cc2)c(Cl)c1	96	3220	4	14	
CS(=O)(=O)Nc1ccc(CNC(=O)c2ccc(CC(F)(F)F)cc2)c(Cl)c1	62	4000	13	22	
CC(C)(C)c1ccc(C(=O)NCc2ccc(NS(C)(=O)=O)cc2F)cc1	29		16	47	Activity [5]: inactive
CC(C)(C)c1ccc(C(=O)NCc2c(F)cc(NS(C)(=O)=O)cc2F)cc1	145		85	9.3	Activity [5]: inactive
CS(=O)(=O)Nc1ccc(CNC(=O)c2ccc(C(F)(F)F)cc2)c(Cl)c1	146		7	9.6	Cmax [8]: 4930 ng/mL; half-life [9]: 312 min; Activity (HepG2 [6]): Non-Toxic; Tmax [10]: 1 h; solubility [7]: 5.7 µg/mL (≈ 14 µM)
CC(C)(O)c1ccc(C(=O)NCc2ccc(NS(C)(=O)=O)cc2Cl)cc1	1210	32	170	1.5	Activity (HepG2 [6]): Non-Toxic; Activity (HepG2 [11]): inactive; solubility [7]: 48 µg/mL (≈ 121 µM); Activity (HepG2 [12]): inactive
COc1ccc(C(=O)NCc2ccc(NS(C)(=O)=O)cc2Cl)cc1	270		38	5	Activity [5]: inactive
CS(=O)(=O)Nc1ccc(CNC(=O)c2ccc(S(F)(F)(F)(F)F)cc2)c(Cl)c1	138		10	9.8	Activity [5]: inactive
CS(=O)(=O)Nc1ccc(CNC(=O)c2ccc(N3CCOCC3)cc2)c(Cl)c1	343	4400	175	4.1	
CS(=O)(=O)Nc1ccc(CNC(=O)c2ccc(N3CCCC3)cc2)c(Cl)c1	77			17	
CCOc1ccc(C(=O)NCc2ccc(NS(C)(=O)=O)cc2Cl)cc1	108	2200	31	12	
CC(C)(C)c1ccc(C(=O)NCc2c(Cl)cc(NS(C)(=O)=O)cc2Cl)cc1	82		268	16	Activity [5]: inactive
CS(=O)(=O)Nc1ccc(CNC(=O)c2ccc(C3(O)CC3)cc2)c(Cl)c1					EC50 (Bile acid receptor [13]): Nd(Unstable)
